Legend:
HCV GT1a(H77) replicon = experiment: HCV replicon luciferase reporter assay, genotype 1a; assay type: cell-based, HCV genotype 1a; conditions: Hepatitis C virus, 72 h, HUH-7 cells, Renilla luciferase, 3 days incubation, read-out: LE_1a (EC50, range)
How it was run: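 Huh-7 cells stably carried a GT1a(H77) Renilla luciferase replicon with NS3 P1496L and NS5A S2204I adaptive mutations. Luminescence was read after 2 h with 7.5 μM EnduRen, and EC50 came from a four-parameter logistic fit; CC50 came from multiplexed Cell Titer-Blue (8 h).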

HCV GT1b(Con1) replicon = experiment: HCV replicon luciferase reporter assay, genotype 1b; assay type: cell-based, HCV genotype 1b; conditions: Hepatitis C virus, 72 h, HUH-7 cells, Renilla luciferase, 3 days incubation, read-out: LE_1b (EC50, range)
How it was run: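 HUH-7 cells stably carrying a Con1 GT1b replicon with Renilla luciferase and Ser1179Ile adaptive mutation; 3.0×10^3 cells/well, DMEM 4% FCS, 0.5% DMSO, twenty-point 3-fold titration, 3 days 37 °C. Luminescence 2 h after 7.5 μM EnduRen; EC50 by four-parameter logistic fit. CC50 from multiplexed Cell Titer-Blue fluorescence (8 h).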

SMILES	EC50 (HCV GT1a(H77) replicon) [nM]	EC50 (HCV GT1b(Con1) replicon) [nM]
C[C@@H]1CC/C=C\[C@@H]2C[C@@]2(C(=O)NS(=O)(=O)C2(C)CC2)NC(=O)[C@@H]2C[C@@H](Oc3cc(-c4cccnc4)nc(-c4nccs4)c3)CN2C(=O)[C@@H](NC(=O)OC2(C(F)(F)F)CCCOC2)[C@H](C)C1 (stereo partly drawn) [Compound 1049, 3-(trifluoromethyl)tetrahydro-2H-pyran-3-yl ((2R,6S,7R,9R,13aS,14aR,16aS,Z)-7,9-dimethyl-14a-(((1-methylcyclopropyl)sulfonyl)carbamoyl)-5,16-dioxo-2-((6-(thiazol-2-yl)-[2,3′-bipyridin]-4-yl)oxy)-1,2,3,5,6,7,8,9,10,11,13a,14,14a,15,16,16a-hexadecahydrocyclopropa[e]pyrrolo[1,2-a][1,4]diazacyclopentadecin-6-yl)carbamate]	5.01 to 35	1.01 to 5
C[C@@H]1CC/C=C\[C@@H]2C[C@@]2(C(=O)NS(=O)(=O)C2(C)CC2)NC(=O)[C@@H]2C[C@@H](Oc3cc(-c4cccnc4)nc(-c4nccs4)c3)CN2C(=O)[C@@H](NC(=O)OC(C)(C)C(F)(F)F)[C@H](C)C1 [Compound 1050, 1,1,1-trifluoro-2-methylpropan-2-yl ((2R,6S,7R,9R,13aS,14aR,16aS,Z)-7,9-dimethyl-14a-(((1-methylcyclopropyl)sulfonyl)carbamoyl)-5,16-dioxo-2-((6-(thiazol-2-yl)-[2,3′-bipyridin]-4-yl)oxy)-1,2,3,5,6,7,8,9,10,11,13a,14,14a,15,16,16a-hexadecahydrocyclopropa[e]pyrrolo[1,2-a][1,4]diazacyclopentadecin-6-yl)carbamate]	1.01 to 5	0.1 to 0.5
CC(C)Oc1ccc(-c2cc(O[C@@H]3C[C@H]4C(=O)N[C@]5(C(=O)NS(=O)(=O)C6(C)CC6)C[C@H]5/C=C\CC[C@@H](C)C[C@@H](C)[C@H](NC(=O)OC5(C(F)(F)F)CCCOC5)C(=O)N4C3)cc(-c3ccccn3)n2)cc1 (stereo partly drawn) [Compound 1051, 3-(trifluoromethyl)tetrahydro-2H-pyran-3-yl ((2R,6S,7R,9R,13aS,14aR,16aS,Z)-2-((6-(4-isopropoxyphenyl)-[2,2′-bipyridin]-4-yl)oxy)-7,9-dimethyl-14a-(((1-methylcyclopropyl)sulfonyl)carbamoyl)-5,16-dioxo-1,2,3,5,6,7,8,9,10,11,13a,14,14a,15,16,16a-hexadecahydrocyclopropa[e]pyrrolo[1,2-a][1,4]diazacyclopentadecin-6-yl)carbamate]	1.01 to 5	0.1 to 0.5
CC(C)Oc1ccc(-c2cc(O[C@@H]3C[C@H]4C(=O)N[C@]5(C(=O)NS(=O)(=O)C6(C)CC6)C[C@H]5/C=C\CC[C@@H](C)C[C@@H](C)[C@H](NC(=O)OC5(C(F)(F)F)CCCOC5)C(=O)N4C3)cc(-c3cscn3)n2)cc1 (stereo partly drawn) [Compound 1052, 3-(trifluoromethyl)tetrahydro-2H-pyran-3-yl ((2R,6S,7R,9R,13aS,14aR,16aS,Z)-2-((2-(4-isopropoxyphenyl)-6-(thiazol-4-yl)pyridin-4-yl)oxy)-7,9-dimethyl-14a-(((1-methylcyclopropyl)sulfonyl)carbamoyl)-5,16-dioxo-1,2,3,5,6,7,8,9,10,11,13a,14,14a,15,16,16a-hexadecahydrocyclopropa[e]pyrrolo[1,2-a][1,4]diazacyclopentadecin-6-yl)carbamate]	0.1 to 0.5	0.51 to 1
CC[C@@H]1C[C@H](C)CC/C=C\[C@@H]2C[C@@]2(C(=O)NS(=O)(=O)C2CC2)NC(=O)[C@@H]2C[C@@H](Oc3cc(-c4ccc(C(F)(F)F)cc4)nc(-c4nccs4)c3)CN2C(=O)[C@H]1NC(=O)OC(C)(C)C(F)(F)F [Compound 1053, 1,1,1-trifluoro-2-methylpropan-2-yl ((2R,6S,7R,9R,13aS,14aR,16aS,Z)-14a-((cyclopropylsulfonyl)carbamoyl)-7-ethyl-9-methyl-5,16-dioxo-2-((2-(thiazol-2-yl)-6-(4-(trifluoromethyl)phenyl)pyridin-4-yl)oxy)-1,2,3,5,6,7,8,9,10,11,13a,14,14a,15,16,16a-hexadecahydrocyclopropa[e]pyrrolo[1,2-a][1,4]diazacyclopentadecin-6-yl)carbamate]	1.01 to 5	1.01 to 5
CC[C@@H]1C[C@H](C)CC/C=C\[C@@H]2C[C@@]2(C(=O)NS(=O)(=O)C2CC2)NC(=O)[C@@H]2C[C@@H](Oc3cc(-c4ccc(C(F)(F)F)cc4)nc(-c4nccs4)c3)CN2C(=O)[C@H]1NC(=O)OC1(C(F)(F)F)CCCOC1 (stereo partly drawn) [Compound 1054, 3-(trifluoromethyl)tetrahydro-2H-pyran-3-yl ((2R,6S,7R,9R,13aS,14aR,16aS,Z)-14a-((cyclopropylsulfonyl)carbamoyl)-7-ethyl-9-methyl-5,16-dioxo-2-((2-(thiazol-2-yl)-6-(4-(trifluoromethyl)phenyl)pyridin-4-yl)oxy)-1,2,3,5,6,7,8,9,10,11,13a,14,14a,15,16,16a-hexadecahydrocyclopropa[e]pyrrolo[1,2-a][1,4]diazacyclopentadecin-6-yl)carbamate]	1.01 to 5	0.51 to 1
CC[C@@H]1C[C@H](C)CC/C=C\[C@@H]2C[C@@]2(C(=O)NS(=O)(=O)C2(C)CC2)NC(=O)[C@@H]2C[C@@H](Oc3ccnc(-c4nc(C)cs4)c3)CN2C(=O)[C@H]1NC(=O)OC(C)(C)C(F)(F)F [Compound 1055, 1,1,1-trifluoro-2-methylpropan-2-yl ((2R,6S,7R,9R,13aS,14aR,16aS,Z)-7-ethyl-9-methyl-14a-(((1-methylcyclopropyl)sulfonyl)carbamoyl)-2-((2-(4-methylthiazol-2-yl)pyridin-4-yl)oxy)-5,16-dioxo-1,2,3,5,6,7,8,9,10,11,13a,14,14a,15,16,16a-hexadecahydrocyclopropa[e]pyrrolo[1,2-a][1,4]diazacyclopentadecin-6-yl)carbamate]	1.01 to 5	1.01 to 5
CC[C@@H]1C[C@H](C)CC/C=C\[C@@H]2C[C@@]2(C(=O)NS(=O)(=O)C2CC2)NC(=O)[C@@H]2C[C@@H](Oc3cc(OC)nc(-c4nccs4)c3)CN2C(=O)[C@H]1NC(=O)OC(C)(C)C(F)(F)F [Compound 1056, 1,1,1-trifluoro-2-methylpropan-2-yl ((2R,6S,7R,9R,13aS,14aR,16aS,Z)-14a-((cyclopropylsulfonyl)carbamoyl)-7-ethyl-2-((2-methoxy-6-(thiazol-2-yl)pyridin-4-yl)oxy)-9-methyl-5,16-dioxo-1,2,3,5,6,7,8,9,10,11,13a,14,14a,15,16,16a-hexadecahydrocyclopropa[e]pyrrolo[1,2-a][1,4]diazacyclopentadecin-6-yl)carbamate]	1.01 to 5	1.01 to 5
CC[C@@H]1C[C@H](C)CC/C=C\[C@@H]2C[C@@]2(C(=O)NS(=O)(=O)C2CC2)NC(=O)[C@@H]2C[C@@H](Oc3cc(-c4ccc(OC(C)C)cc4)nc(-c4nccs4)c3)CN2C(=O)[C@H]1NC(=O)O[C@@H]1C[C@@H]2C[C@@H]2C1 [Compound 1057, (1R,3r,5S)-bicyclo[3.1.0]hexan-3-yl ((2R,6S,7R,9R,13aS,14aR,16aS,Z)-14a-((cyclopropylsulfonyl)carbamoyl)-7-ethyl-2-((2-(4-isopropoxyphenyl)-6-(thiazol-2-yl)pyridin-4-yl)oxy)-9-methyl-5,16-dioxo-1,2,3,5,6,7,8,9,10,11,13a,14,14a,15,16,16a-hexadecahydrocyclopropa[e]pyrrolo[1,2-a][1,4]diazacyclopentadecin-6-yl)carbamate]	1.01 to 5	1.01 to 5
Cc1ccc(-c2cc(O[C@@H]3C[C@H]4C(=O)N[C@]5(C(=O)NS(=O)(=O)C6(C)CC6)C[C@H]5/C=C\CC[C@@H](C)C[C@@H](C)[C@H](NC(=O)OC(C)(C)C(F)(F)F)C(=O)N4C3)cc(-c3nccs3)n2)cc1 [Compound 1059, 1,1,1-trifluoro-2-methylpropan-2-yl ((2R,6S,7R,9R,13aS,14aR,16aS,Z)-7,9-dimethyl-14a-(((1-methylcyclopropyl)sulfonyl)carbamoyl)-5,16-dioxo-2-((2-(thiazol-2-yl)-6-(p-tolyl)pyridin-4-yl)oxy)-1,2,3,5,6,7,8,9,10,11,13a,14,14a,15,16,16a-hexadecahydrocyclopropa[e]pyrrolo[1,2-a][1,4]diazacyclopentadecin-6-yl)carbamate]	0.51 to 1	0.51 to 1
C[C@@H]1CC/C=C\[C@@H]2C[C@@]2(C(=O)NS(=O)(=O)C2(C)CC2)NC(=O)[C@@H]2C[C@@H](Oc3cc(-c4ccccc4)nc(-c4nccs4)c3)CN2C(=O)[C@@H](NC(=O)OC(C)(C)C(F)(F)F)[C@H](C)C1 [Compound 1060, 1,1,1-trifluoro-2-methylpropan-2-yl ((2R,6S,7R,9R,13aS,14aR,16aS,Z)-7,9-dimethyl-14a-(((1-methylcyclopropyl)sulfonyl)carbamoyl)-5,16-dioxo-2-((2-phenyl-6-(thiazol-2-yl)pyridin-4-yl)oxy)-1,2,3,5,6,7,8,9,10,11,13a,14,14a,15,16,16a-hexadecahydrocyclopropa[e]pyrrolo[1,2-a][1,4]diazacyclopentadecin-6-yl)carbamate]	0.51 to 1	0.1 to 0.5
